The structures appear in SMILES notation. Counter-ions that a name gives are not always drawn.

The subject of data set [1] is CCR2 expressing cells (CD11b+Ly6c+ Hi) in peripheral blood. The data set is described as follows: In Vivo Depletion Assay (flow cytometry of peripheral blood). The conditions noted are these: hCCR2 knock-in mice; IV 0.1 mpk compound + 10 mpk anti-cotinine antibody (mouse IgG2a Fc); peripheral blood at 48 hr. Set-up: species or system Human CCR2 (hCCR2) knock-in mice. As to the method: (§1) Human CCR2 (hCCR2) knock-in mice (057 background) were dosed intravenously with a PBS solution containing a compound of Formula (I) to measure depletion of CCR2 expressing cells in peripheral blood. Peripheral blood from IV dosed mice was also analyzed to determine PK properties of the ARM compounds of Formula (I).
Stock solution preparation: Stock solutions of compounds of Formula (I) were prepared at 20 mg/mL and 100 mg/mL in DMSO for PK/PD and dose tolerability studies respectively. Stock solutions were stored at −20° C. until further usage.
Formulations preparation: On the day of experiment, the stock solution of the compound of Formula (I) was removed from storage at −20° C. and thawed at room temperature. Anti-cotinine antibody having a heavy chain sequence of SEQ ID NO: 13 and a light chain sequence of SEQ ID NO: 14 (rabbit variable region sequence with mouse IgG2a Fc domain), if required was removed from storage at −80° C. and thawed at room temperature. Antibody vials were immediately transferred into wet ice after thawing. Compounds of Formula (I) were further diluted in DMSO as per experimental requirements.
Formulation composition: The formulation composition was Saline: DMSO: PBS. Saline was added based on the quantity required and then stock solution of the compound of Formula (I) prepared in DMSO, followed by addition of antibody in PBS. Formulations were incubated at room temperature for 30 minutes before administration to the mouse. DMSO was used at 1 to 2% (v/v) in the final formulation.
(§2) Administration to Animal: Solution formulation of antibody and compound of Formula (I) was injected (bolus injection) to the restrained mouse in the right/left lateral tail vein. Animals were dosed with 0.1 milligram per kilogram (mpk) of the compound of Formula (I) and 10 mpk of the anti-cotinine antibody.
(§3) Terminal bleeding at end of experiment (48 hr): Approximately 250 μL of blood in K2EDTA tube and approximately 250 μL of blood in SST (serum separation tube) was collected from each mouse through retro-orbital bleeding under deep isoflurane anesthesia. After bleeding, each mouse was sacrificed by cervical dislocation. The blood distribution at termination was determined as follows: • For PK: 50 μL of K2EDTA blood was transferred to another tube for PK • Flow cytometry: Remaining blood (˜200 μL) was used for flow cytometry analysis. • For serum collection: serum separator tubes (BD) were centrifuged at 4° C., 5000 rpm for 15 minutes. Approximately 100 μL serum was separated and stored at −80° C. for further usage. • Blood drug concentration: Samples collected at the various timepoints (0.25 hr, 2 hr, 24 and 48 hr) were analyzed to determine blood drug concentration.
CCR2 depletion in peripheral blood was determined by flow cytometry. Briefly, peripheral blood was collected from all animals at the end of study termination and processed. Blood samples were lysed using 1×RBC Lysis buffer and the resulting cell pellet was washed twice in FACS buffer (HBSS containing 5% FBS). Cells were subjected to Fc blocking using mouse Fc block from Biolegend (Trustain, anti-mouse CD16/32, Cat: 101319) to block non-specific binding followed by surface staining for immune markers (CD45, CD3, CD11b, Ly6C, human CCR2). Surface staining was done for 30 minutes in ice and cells were washed twice to remove unbound antibodies. Cells were stained with 7AAD to determine viability and acquired on BD FACSVerse flow cytometer. Appropriate FMO controls and single-color controls were included in the experiment for gating and compensation respectively.
Percent depletion of CD11b+Ly6c+ Hi cells and CCR2 expression for the different treatment groups was determined. The results are shown below in Table 4 and are reported as percent (%) depletion of CCR2 expressing cells.

A short description of data set [2]: Blood drug concentration analysis (LC-MS/MS) in In Vivo Depletion Assay. The following applies: human CCR2 (hCCR2) knock-in, 057 background, mouse, whole blood, hCCR2 knock-in mice, IV 0.1 mpk compound + 10 mpk anti-cotinine antibody, 48 hours post-dose, read-out: Exposure of Compound of Formula (I) 48 hours post-dose. The protocol: as §1, §2
Collection of Blood for PK: Blood was collected at time points 0.25 hour, 2 hours, and […] following administration (50 μL/time point) through retro-orbital bleeding under mild isoflurane anesthesia.
as §3
Drug concentration in blood samples was determined by an LC-MS/MS-based bioanalytical method developed at Syngene. Samples were analyzed on Q-Trap, API-5500 LC-MS/MS system coupled with Exion UHPLC system from SCIEX, USA operated in multiple reaction monitoring mode employing electrospray ionization technique in positive polarity. Analyte and internal standard peaks were resolved on Synergi Polar, 75×2.0 mm, 4μ column using mobile phase 10 mM Ammonium acetate in Milli-Q water as phase A and 0.1% Formic acid in acetonitrile as Phase B. Gradient elution was performed with initial composition 95% Phase A at 0.0 min, holding it for 0.2 minutes, ramping to 5% by 1.0 minute, keeping the same for next 0.5 minutes and coming back to 95% by 1.6 minutes. The total run time was 2 minutes.
Working dilutions for calibration curve and quality control standards were prepared by serially diluting 20 mg/mL stock solution with DMSO. Spiked concentrations for calibration curve in the whole blood ranged from 1 ng/mL to 1000 ng/mL. The working solution of internal standard (Verapamil, 25 ng/mL) was prepared in acetonitrile. 10 μL of the study sample and calibration curve, quality control, and blank whole blood samples were aliquoted in 96 deep well plates for processing. 10 μL of Milli-Q water was added to all the samples and briefly vortexed to initiate complete hemolysis. 10 μL of 20 mM dithiothreitol (OTT) was added to all the samples and incubated for 30 minutes at 37° C. The addition of DTT enhanced the recovery of ARM compounds of Formula (I) from the biological matrix. 300 μL of working internal standard solution was added to all samples except total blank and wash samples, where 300 μL of acetonitrile was added. All the samples were vortex mixed for 5 minutes, followed by centrifugation at 4000 rpm for 10 minutes at 4° C. Supernatants were transferred to the loading plate and injected 3 μL to LC-MS/MS system for analysis. The results are shown below in Table 4 and are reported as compound exposure 48 hours post-dose

Take `CO[C@@H]1COCC[C@@H]1N[C@@H]1CC[C@](CCCNC(=O)CCOCCOCCO[C@H]2CC[C@H](OCCNC(=O)[C@H]3CC(=O)N(C)[C@@H]3c3cccnc3)CC2)(C(=O)N2CCc3ncc(C(F)(F)F)cc3C2)C1` [Example 20, ((2S,3S)—N-(2-(((1r,4S)-4-(2-(2-(3-((3-((1S,3R)-3-(((3S,4S)-3-Methoxytetrahydro-2H-pyran-4-yl)amino)-1-(3-(trifluoromethyl)-5,6,7,8-tetrahydro-1,6-naphthyridine-6-carbonyl)cyclopentyl)propyl)amino)-3-oxopropoxy)ethoxy)ethoxy)cyclohexyl)oxy)ethyl)-1-methyl-5-oxo-2-(pyridin-3-yl)pyrrolidine-3-carboxamide, Formic acid salt]: in data set [1], the “% Depletion of CCR2 expressing cells” value was 87.3%. In addition, in data set [2], the concentration at 48 h amounted to 74.6 ng/mL.
For `CO[C@@H]1COCC[C@@H]1N[C@@H]1CC[C@](CCCNC(=O)CCOCCOCCOCCOCCOCCOCCOCCOCCOCCOCCOCCOCCNC(=O)[C@H]2CC(=O)N(C)[C@@H]2c2cccnc2)(C(=O)N2CCc3ncc(C(F)(F)F)cc3C2)C1` [Example 1, (2S,3S)—N-(43-((1S,3R)-3-(((3S,4S)-3-methoxytetrahydro-2H-pyran-4-yl)amino)-1-(3-(trifluoromethyl)-5,6,7,8-tetrahydro-1,6-naphthyridine-6-carbonyl)cyclopentyl)-39-oxo-3,6,9,12,15,18,21,24,27,30,33,36-dodecaoxa-40-azatritetracontyl)-1-methyl-5-oxo-2-(pyridin-3-yl)pyrrolidine-3-carboxamide], in that order: 91.67% and 55.7 ng/mL.
For `CO[C@@H]1COCC[C@@H]1N[C@@H]1CC[C@@](C(=O)N2CCc3nc(CCCCOc4cccc(C(=O)NCCOCCOCCOCCOCCOCCOCCOCCOCCOCCNC(=O)[C@H]5CC(=O)N(C)[C@@H]5c5cccnc5)c4)c(C(F)(F)F)cc3C2)(C(C)C)C1` [Example 22, (2S,3S)—N-(1-(3-(4-(6-((1S,3R)-1-Isopropyl-3-(((3S,4S)-3-methoxytetrahydro-2H-pyran-4-yl)amino)cyclopentane-1-carbonyl)-3-(trifluoromethyl)-5,6,7,8-tetrahydro-1,6-naphthyridin-2-yl)butoxy)phenyl)-1-oxo-5,8,11,14,17,20,23,26,29-nonaoxa-2-azahentriacontan-31-yl)-1-methyl-5-oxo-2-(pyridin-3-yl)pyrrolidine-3-carboxamide], in that order: 89% and 15.5 ng/mL.
The matching figures for `CO[C@@H]1COCC[C@@H]1N[C@@H]1CC[C@](CCC2CCN(C(=O)[C@H]3CC[C@H](NC(=O)CCCO[C@H]4CC[C@H](OCCNC(=O)[C@H]5CC(=O)N(C)[C@@H]5c5cccnc5)CC4)CC3)CC2)(C(=O)N2CCc3ncc(C(F)(F)F)cc3C2)C1` [Example 2, (2S,3S)—N-(2-(((1R,4S)-4-(4-(((1S,4R)-4-(4-(2-((1S,3R)-3-(((3S,4S)-3-Methoxytetrahydro-2H-pyran-4-yl)amino)-1-(3-(trifluoromethyl)-5,6,7,8-tetrahydro-1,6-naphthyridine-6-carbonyl)cyclopentyl)ethyl)piperidine-1-carbonyl)cyclohexyl)amino)-4-oxobutoxy)cyclohexyl)oxy)ethyl)-1-methyl-5-oxo-2-(pyridin-3-yl)pyrrolidine-3-carboxamide]: 97.7% and 53.2 ng/mL.
For the molecule `CO[C@@H]1COCC[C@@H]1N[C@@H]1CC[C@](CCCCNC(=O)[C@H]2CC[C@H](NC(=O)CCCO[C@H]3CC[C@H](OCCNC(=O)[C@H]4CC(=O)N(C)[C@@H]4c4cccnc4)CC3)CC2)(C(=O)N2CCc3ncc(C(F)(F)F)cc3C2)C1` [Example 7, (2S,3S)-N-(2-(((1R,4S)-4-(4-(((1S,4R)-4-((4-((1S,3R)-3-(((3S,4S)-3-Methoxytetrahydro-2H-pyran-4-yl)amino)-1-(3-(trifluoromethyl)-5,6,7,8-tetrahydro-1,6-naphthyridine-6-carbonyl)cyclopentyl)butyl)carbamoyl)cyclohexyl)amino)-4-oxobutoxy)cyclohexyl)oxy)ethyl)-1-methyl-5-oxo-2-(pyridin-3-yl)pyrrolidine-3-carboxamide], the “% Depletion of CCR2 expressing cells” value in data set [1] is 86.93%. The concentration at 48 h in data set [2] stood at 54.4 ng/mL.
For `CO[C@@H]1COCC[C@@H]1N[C@@H]1CC[C@](COCCNC(=O)[C@H]2CC[C@H](NC(=O)CCCO[C@H]3CC[C@H](OCCNC(=O)[C@H]4CC(=O)N(C)[C@@H]4c4cccnc4)CC3)CC2)(C(=O)N2CCc3ncc(C(F)(F)F)cc3C2)C1` [Example 11, (2S,3S)-N-(2-(((1R,4S)-4-(4-(((1S,4R)-4-((2-(((1S,3R)-3-(((3S,4S)-3-Methoxytetrahydro-2H-pyran-4-yl)amino)-1-(3-(trifluoromethyl)-5,6,7,8-tetrahydro-1,6-naphthyridine-6-carbonyl)cyclopentyl)methoxy)ethyl)carbamoyl)cyclohexyl)amino)-4-oxobutoxy)cyclohexyl)oxy)ethyl)-1-methyl-5-oxo-2-(pyridin-3-yl)pyrrolidine-3-carboxamide], in that order: 89.3% and 85.1 ng/mL.
Take `CO[C@@H]1COCC[C@@H]1N[C@@H]1CC[C@@](C(=O)N2Cc3cc(C(F)(F)F)cnc3[C@@H](NC(=O)[C@H]3CC[C@H](NC(=O)CCCO[C@H]4CC[C@H](OCCNC(=O)[C@H]5CC(=O)N(C)[C@@H]5c5cccnc5)CC4)CC3)C2)(C(C)C)C1` [Example 15, (2S,3S)-N-(2-(((1R,4S)-4-(4-(((1S,4R)-4-(((S)-6-((1S,3R)-1-isopropyl-3-(((3S,4S)-3-methoxytetrahydro-2H-pyran-4-yl)amino)cyclopentane-1-carbonyl)-3-(trifluoromethyl)-5,6,7,8-tetrahydro-1,6-naphthyridin-8-yl)carbamoyl)cyclohexyl)amino)-4-oxobutoxy)cyclohexyl)oxy)ethyl)-1-methyl-5-oxo-2-(pyridin-3-yl)pyrrolidine-3-carboxamide]: in data set [1], the “% Depletion of CCR2 expressing cells” value stood at 94.04%. In data set [2], the concentration at 48 h turned out to be 35 ng/mL.

The record behind these values is patent US20250154288A1, “CYTOTOXICITY TARGETING CHIMERAS FOR C-C CHEMOKINE RECEPTOR 2-EXPRESSING CELLS” (GLAXOSMITHKLINE INTELLECTUAL PROPERTY DEVELOPMENT LIMITED, priority 2022, published 2025).
